Measured values taken from patent US4230711A (priority 1979, dated 1980).

How the values were obtained:
[1] = system: Phytophthora infestans conidia; type: in vivo; details: @ 250 ppm; tomato (Bonny Best) seedlings sprayed, inoculated one day later; approximately 7 days; relative to untreated check plants
[2] = system: Alternaria solani conidia; details: in vivo
Septoria apii = type: in vivo; details: @ 250 ppm; celery (Utah) plants; approximately 14 days; relative to untreated check plants
Erysiphe polygoni = details: in vivo
fungi = details: cited from earlier work

In the case of `CC1(C)C(=O)N(SC(Cl)(Cl)Cl)C(=O)c2ccccc21` [Compound 1, N-(trichloromethylthio)-4,4-dimethyl homophthalimide], the “% Control, Tomato Late Blight” value [1] is reported as 95%, the “% Control, Tomato Early Blight” value [2] is reported as 33% and the “% Control, Celery Late Blight” value (Septoria apii) is reported as 50%. For the same molecule, the “% Control, Bean Powdery Mildew” value (Erysiphe polygoni) was 96%.

With `CC1(C)C(=O)NC(=O)c2ccccc21` [Compound 3, 4,4-dimethyl homophthalimide] the “% Control, Tomato Late Blight” value [1] was 0%, the “% Control, Tomato Early Blight” value [2] was 0% and the “% Control, Celery Late Blight” value (Septoria apii) was 0%. For the same molecule, the “% Control, Bean Powdery Mildew” value (Erysiphe polygoni) was 0%.

In the case of `O=C1c2ccccc2C(=O)N1SC(Cl)(Cl)Cl` [N-(trichloromethylthio)phthalimide], the fungicidal activity (fungi) is given as “having fungicidal activity”.
